This is an account of results in PMC4506958 (FEBS Open Bio, 2015).

pKd: −log10 of the molar value. Where only a bound is given, the exact number is not on record here.

The pKd is −log10 of the Kd, conventionally taken in molar units.

The target in assay [1] is T1, Keap1 (Kelch-like ECH-associated protein 1) (Homo sapiens, UniProt Q14145).
T1 construct: Kelch domain (residues 321–609)
Description: X-ray crystal structures at […] Å (soaking form 3vnh, cocrystallization form 3vng); SPR; AlphaScreen competition with Nrf2 peptide. The assay is classed as binding. Background: In Alpha technology, singlet oxygen from a donor bead excites a nearby acceptor bead.

The target of assay [2] is Nrf2 ETGE motif (Homo sapiens) (UniProt Q16236). Description: ITC. Conditions: cited from earlier work.

T1 sequence (Q14145 321-609): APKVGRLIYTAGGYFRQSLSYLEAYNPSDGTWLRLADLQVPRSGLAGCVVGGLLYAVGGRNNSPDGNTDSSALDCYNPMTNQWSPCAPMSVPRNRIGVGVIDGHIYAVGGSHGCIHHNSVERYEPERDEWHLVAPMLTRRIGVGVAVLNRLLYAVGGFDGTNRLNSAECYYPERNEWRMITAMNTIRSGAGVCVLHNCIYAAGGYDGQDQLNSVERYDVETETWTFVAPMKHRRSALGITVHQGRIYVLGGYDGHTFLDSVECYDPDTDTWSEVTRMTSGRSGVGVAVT
Sequence of Keap1 Kelch domain (Q14145 321-609): as above

Consider `O=C(O)COc1cccc(CNC(=O)Nc2nnc(-c3ccco3)o2)c1` [Ligand1, 2-(3-((3-(5-(furan-2-yl)-1,3,4-oxadiazol-2-yl)ureido)methyl)phenoxy)acetic acid], for which the pKd in assay [1] is under 4.30.

Turning to “Keap1 Kelch domain (from UniProt Q14145)”, in assay [2], the pKd was 8.10.
